Source: patent US8415469B2, “Compounds and methods for kinase modulation, and indications therefor” (Plexxikon Inc., priority 2005, dated 2013)

Key:
Assay type in all cases: biochemical
Abl = target: T1, Abl (Homo sapiens, UniProt P00519); assay: AlphaScreen kinase assay, Abl; conditions: read-out: activity toward kinase Abl, IC50
T1 construct: P1121. pET-SPEC BI-PTP Abl G227-V515-X; His6 (N); made in house; host or cells: E. coli (PTP1B co-expressed)
T1 sequence (P00519 with tags, fused parts or gaps): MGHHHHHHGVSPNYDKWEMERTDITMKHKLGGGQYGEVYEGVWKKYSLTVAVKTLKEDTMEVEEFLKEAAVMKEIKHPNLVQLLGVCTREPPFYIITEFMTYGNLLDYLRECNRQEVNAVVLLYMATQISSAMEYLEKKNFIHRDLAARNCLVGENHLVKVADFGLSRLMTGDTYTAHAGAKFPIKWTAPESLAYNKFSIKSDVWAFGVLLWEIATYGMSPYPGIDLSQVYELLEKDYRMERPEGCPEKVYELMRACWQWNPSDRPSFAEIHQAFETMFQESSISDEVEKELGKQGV
Method in brief: (§1)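 Uses phospho-specific antibody on acceptor beads plus streptavidin donor beads capturing biotinylated peptide substrate; singlet oxygen from donor excites nearby acceptor. Inhibitors tested in 8-point, 1:3 titrations starting from 20 mM DMSO solutions.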

c-Raf-1 = target: T2, c-Raf-1 (Homo sapiens, UniProt P04049); assay: AlphaScreen kinase assay, c-Raf-1; conditions: read-out: IC50, activity toward kinase c-Raf-1
T2 construct: purchased Upstate Biotechnology

Fak = target: T3, Fak (Homo sapiens, UniProt Q05397); assay: AlphaScreen kinase assay, Fak; conditions: read-out: IC50, activity toward kinase Fak
T3 construct: P1358.pFastBacHtb FAK S411-Q686-X; His6 with pFastBacHTb leader (TEV site) (N); made in house; host or cells: Sf9 (baculovirus)

Flt1 = target: T4, Flt1 (Homo sapiens, UniProt P17948); assay: AlphaScreen kinase assay, Flt1; conditions: read-out: IC50, activity toward kinase Flt1
T4 construct: P1826.pETN6 BI-PTP FLT1 M799-D1165-X WT; His6 (N); made in house; host or cells: E. coli (PTP1B co-expressed)
T4 sequence (P17948 with tags, fused parts or gaps): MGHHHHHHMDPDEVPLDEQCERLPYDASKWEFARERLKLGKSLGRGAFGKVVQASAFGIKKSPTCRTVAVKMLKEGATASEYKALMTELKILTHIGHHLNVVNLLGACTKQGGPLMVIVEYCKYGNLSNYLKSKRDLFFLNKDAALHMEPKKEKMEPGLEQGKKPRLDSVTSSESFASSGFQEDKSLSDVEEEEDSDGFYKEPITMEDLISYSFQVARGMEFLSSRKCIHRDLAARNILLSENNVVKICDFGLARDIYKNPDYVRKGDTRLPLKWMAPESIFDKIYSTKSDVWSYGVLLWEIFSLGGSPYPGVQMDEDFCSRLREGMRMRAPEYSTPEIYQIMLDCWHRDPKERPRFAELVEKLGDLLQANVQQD

Jnk3 = target: T5, Jnk3 (Homo sapiens, UniProt P53779); assay: AlphaScreen kinase assay, Jnk3; conditions: read-out: IC50, activity toward kinase Jnk3
T5 construct: purchased Upstate Biotechnology

Met = target: T6, Met (Homo sapiens, UniProt P08581); assay: AlphaScreen kinase assay, Met; conditions: read-out: IC50, activity toward kinase Met
T6 construct: P1818.pETN6 BI-PTP MET G1056-G1364-X WT; His6 (N); made in house; host or cells: E. coli (PTP1B co-expressed)
Method in brief: as §1

Akt3 = Akt3 (Homo sapiens, UniProt Q9Y243); assay: AlphaScreen kinase assay, Akt3; conditions: read-out: IC50, activity toward kinase Akt3
Method in brief: as §1

Pyk2 = target: T7, Pyk2 (Homo sapiens, UniProt Q14289); assay: AlphaScreen kinase assay, Pyk2; conditions: read-out: IC50, activity toward kinase Pyk2
T7 construct: purchased Upstate Biotechnology

Measured: IC50

T5 sequence (P53779 whole entry): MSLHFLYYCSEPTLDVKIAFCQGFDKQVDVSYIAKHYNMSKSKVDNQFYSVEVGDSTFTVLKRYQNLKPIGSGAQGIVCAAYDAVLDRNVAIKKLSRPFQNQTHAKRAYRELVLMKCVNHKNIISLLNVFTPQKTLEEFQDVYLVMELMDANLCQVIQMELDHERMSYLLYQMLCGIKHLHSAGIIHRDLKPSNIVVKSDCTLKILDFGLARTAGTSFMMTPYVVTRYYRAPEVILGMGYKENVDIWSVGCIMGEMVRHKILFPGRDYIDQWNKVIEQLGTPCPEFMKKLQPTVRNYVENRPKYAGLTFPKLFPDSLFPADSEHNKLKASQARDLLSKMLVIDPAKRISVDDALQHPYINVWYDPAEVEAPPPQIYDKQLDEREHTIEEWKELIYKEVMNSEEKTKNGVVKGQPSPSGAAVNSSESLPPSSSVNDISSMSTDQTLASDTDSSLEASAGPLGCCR
T2 sequence (P04049 whole entry): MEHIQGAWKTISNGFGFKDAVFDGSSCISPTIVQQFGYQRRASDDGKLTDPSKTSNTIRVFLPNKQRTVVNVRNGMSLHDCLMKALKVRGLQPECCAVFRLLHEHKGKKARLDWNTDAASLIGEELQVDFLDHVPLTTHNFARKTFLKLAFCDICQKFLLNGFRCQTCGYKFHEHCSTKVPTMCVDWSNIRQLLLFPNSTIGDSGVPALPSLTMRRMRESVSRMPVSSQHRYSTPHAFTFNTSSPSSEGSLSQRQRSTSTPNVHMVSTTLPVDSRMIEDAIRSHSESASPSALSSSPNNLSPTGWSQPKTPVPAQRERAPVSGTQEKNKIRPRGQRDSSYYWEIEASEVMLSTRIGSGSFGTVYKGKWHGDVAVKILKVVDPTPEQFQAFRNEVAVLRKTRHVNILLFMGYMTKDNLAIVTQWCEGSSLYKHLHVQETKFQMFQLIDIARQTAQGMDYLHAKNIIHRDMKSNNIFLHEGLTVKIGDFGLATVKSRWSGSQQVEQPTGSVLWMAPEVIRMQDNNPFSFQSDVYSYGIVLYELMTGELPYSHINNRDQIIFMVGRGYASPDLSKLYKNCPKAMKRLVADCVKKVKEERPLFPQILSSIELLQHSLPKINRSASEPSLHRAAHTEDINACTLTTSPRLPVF
T3 sequence (Q05397 411-686): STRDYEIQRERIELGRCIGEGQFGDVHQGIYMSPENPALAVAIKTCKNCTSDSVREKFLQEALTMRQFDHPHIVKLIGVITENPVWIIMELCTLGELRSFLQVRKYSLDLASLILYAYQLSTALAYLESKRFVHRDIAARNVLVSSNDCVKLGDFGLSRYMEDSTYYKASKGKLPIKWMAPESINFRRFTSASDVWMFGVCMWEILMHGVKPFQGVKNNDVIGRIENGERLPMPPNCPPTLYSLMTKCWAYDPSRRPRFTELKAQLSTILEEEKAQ
T7 sequence (Q14289 whole entry): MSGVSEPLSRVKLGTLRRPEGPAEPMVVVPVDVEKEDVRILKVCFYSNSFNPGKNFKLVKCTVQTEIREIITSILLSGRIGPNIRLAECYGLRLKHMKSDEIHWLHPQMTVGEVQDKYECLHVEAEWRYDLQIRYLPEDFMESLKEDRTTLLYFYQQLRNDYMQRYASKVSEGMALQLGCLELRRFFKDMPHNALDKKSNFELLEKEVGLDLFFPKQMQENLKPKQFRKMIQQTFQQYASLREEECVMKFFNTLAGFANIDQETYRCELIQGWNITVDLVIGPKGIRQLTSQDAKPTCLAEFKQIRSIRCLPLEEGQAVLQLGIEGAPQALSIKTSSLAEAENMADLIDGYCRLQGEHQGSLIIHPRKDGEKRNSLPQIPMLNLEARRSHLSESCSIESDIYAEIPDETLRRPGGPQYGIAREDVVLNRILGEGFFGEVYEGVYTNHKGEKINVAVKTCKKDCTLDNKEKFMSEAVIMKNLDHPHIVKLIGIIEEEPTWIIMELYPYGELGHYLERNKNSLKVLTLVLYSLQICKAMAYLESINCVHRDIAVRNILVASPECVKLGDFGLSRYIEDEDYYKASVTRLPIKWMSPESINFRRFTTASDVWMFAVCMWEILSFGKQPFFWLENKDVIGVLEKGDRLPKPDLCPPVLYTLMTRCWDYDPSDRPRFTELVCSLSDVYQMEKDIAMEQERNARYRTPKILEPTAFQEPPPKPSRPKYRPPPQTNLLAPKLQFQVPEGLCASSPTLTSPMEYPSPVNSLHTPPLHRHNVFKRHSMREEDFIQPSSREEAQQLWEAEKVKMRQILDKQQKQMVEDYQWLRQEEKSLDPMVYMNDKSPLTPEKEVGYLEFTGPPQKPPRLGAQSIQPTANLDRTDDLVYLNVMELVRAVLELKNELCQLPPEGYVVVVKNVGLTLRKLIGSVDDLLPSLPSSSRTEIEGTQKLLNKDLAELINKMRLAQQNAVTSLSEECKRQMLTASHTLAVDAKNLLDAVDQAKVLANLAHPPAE
Sequence of Akt3 (Q9Y243 whole entry): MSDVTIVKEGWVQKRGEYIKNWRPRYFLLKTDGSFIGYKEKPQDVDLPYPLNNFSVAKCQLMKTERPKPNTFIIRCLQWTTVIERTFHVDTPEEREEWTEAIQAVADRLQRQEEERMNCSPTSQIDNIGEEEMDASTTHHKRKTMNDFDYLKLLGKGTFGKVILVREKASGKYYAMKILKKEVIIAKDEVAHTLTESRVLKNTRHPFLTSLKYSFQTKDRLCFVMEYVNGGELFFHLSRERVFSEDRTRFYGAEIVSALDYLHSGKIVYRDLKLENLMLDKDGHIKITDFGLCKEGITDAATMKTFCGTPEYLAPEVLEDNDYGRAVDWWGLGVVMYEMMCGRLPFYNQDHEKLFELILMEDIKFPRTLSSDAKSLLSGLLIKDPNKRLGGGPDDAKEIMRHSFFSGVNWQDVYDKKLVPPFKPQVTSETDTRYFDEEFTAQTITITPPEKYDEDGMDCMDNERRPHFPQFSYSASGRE
T6 sequence (P08581 with tags, fused parts or gaps): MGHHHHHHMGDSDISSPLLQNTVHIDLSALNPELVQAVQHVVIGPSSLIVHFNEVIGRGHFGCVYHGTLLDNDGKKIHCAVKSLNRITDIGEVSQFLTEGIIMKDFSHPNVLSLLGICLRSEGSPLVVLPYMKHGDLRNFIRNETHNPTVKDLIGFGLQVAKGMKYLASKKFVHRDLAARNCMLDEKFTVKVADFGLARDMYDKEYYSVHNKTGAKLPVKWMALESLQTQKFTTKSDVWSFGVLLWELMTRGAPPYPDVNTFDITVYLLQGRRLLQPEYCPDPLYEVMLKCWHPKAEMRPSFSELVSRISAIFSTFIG

Nc1cccc(-c2cnc3[nH]cc(C(=O)c4cc(O)ccc4F)c3c2)c1 [Compound P-0002]
not listed: Pyk2
≤ 10 µM: all other assays above

O=C(c1cc(O)ccc1F)c1c[nH]c2ncccc12 [Compound P-0005]
≤ 10 µM: Abl | c-Raf-1 | Flt1 | Akt3

Cc1c(O)cccc1C(=O)c1c[nH]c2ncc(-c3cccnc3)cc12 [Compound P-0006, (3-Hydroxy-2-methyl-phenyl)-(5-pyridin-3-yl-1H-pyrrolo[2,3b]pyridin-3-yl)-methanone]
≤ 10 µM: c-Raf-1 | Fak | Jnk3 | Met | Akt3

CS(=O)(=O)c1cccc(-c2cnc3[nH]cc(C(=O)c4cc(O)ccc4F)c3c2)c1 [Compound P-0008, (2-Fluoro-5-hydroxy-phenyl)-[5-(3-methanesulfonyl-phenyl)-1H-pyrrolo[2,3-b]pyridin-3-yl]-methanone]
not listed: Abl | Pyk2
≤ 10 µM: all other assays above

COc1ccc(C(=O)c2c[nH]c3ncc(-c4cccc(/C=C/C(=O)O)c4)cc23)c(Cl)c1 [Compound P-0015]
≤ 10 µM: c-Raf-1 | Jnk3 | Met | Pyk2

Cc1c(O)cccc1C(=O)c1c[nH]c2ncc(-c3ccccc3)cc12 [Compound P-0016, (3-Hydroxy-2-methyl-phenyl)-(5-phenyl-1H-pyrrolo[2,3b]pyridin-3-yl)-methanone]
≤ 10 µM: c-Raf-1 | Fak | Flt1 | Jnk3 | Met

O=C(c1cccc(O)c1)c1c[nH]c2ncc(Nc3ccccc3)cc12 [Compound P-0025]
≤ 10 µM: Abl | c-Raf-1 | Fak | Jnk3 | Akt3

CS(=O)(=O)c1cccc(-c2cnc3[nH]cc(C(=O)c4cccc(O)c4F)c3c2)c1 [Compound P-0026, (2-Fluoro-3-hydroxy-phenyl)-[5-(3-methanesulfonylphenyl)1H-pyrrolo[2,3-b]pyridin-3-yl]-methanone]
not listed: Abl | Pyk2
≤ 10 µM: all other assays above

O=C(c1cccc(O)c1F)c1c[nH]c2ncc(-c3cccnc3)cc12 [Compound P-0027, (2-Fluoro-3-hydroxy-phenyl)-(5-pyridin-3-yl-1H-pyrrolo[2,3-b]pyridin-3-yl)-methanone]
not listed: Abl | Pyk2
≤ 10 µM: all other assays above

Cc1ccc(F)cc1C(=O)c1c[nH]c2ncc(-c3cccc(NS(C)(=O)=O)c3)cc12 [Compound P-0028]
≤ 10 µM: Abl | Met

CC(=O)Nc1cccc(-c2cnc3[nH]cc(C(=O)c4cccc(O)c4F)c3c2)c1 [Compound P-0035, N-{3-[3-(2-Fluoro-3-hydroxy-benzoyl)-1H-pyrrolo[2,3-b]pyridin-5-yl]-phenyl}-acetamide]
≤ 10 µM: c-Raf-1 | Fak | Jnk3 | Met | Akt3

CS(=O)(=O)Nc1cccc(-c2cnc3[nH]cc(C(=O)c4cccc(O)c4F)c3c2)c1 [Compound P-0038, N-{3-[3-(2-Fluoro-3-hydroxy-benzoyl)-1H-pyrrolo[2,3-b]pyridin-5-yl]-phenyl}-methanesulfonamide]
≤ 10 µM: c-Raf-1 | Flt1 | Jnk3 | Met | Akt3

O=C(c1cccc(O)c1)c1c[nH]c2ncc(-c3cccnc3)cc12 [Compound P-0048]
≤ 10 µM: Abl | Akt3

Oc1cccc(Cc2c[nH]c3ncc(-c4cccs4)cc23)c1F [Compound P-0052, 2-Fluoro-3-(5-thiophen-2-yl-1H-pyrrolo[2,3-b]pyridin-3-ylmethyl)-phenol]
≤ 10 µM: c-Raf-1 | Jnk3 | Met | Pyk2

Cc1ccc(S(=O)(=O)NCc2c[nH]c3ncccc23)cc1 [Compound P-0058]
≤ 10 µM: Abl | Jnk3 | Met | Pyk2 | Akt3

Oc1ccc(F)c(Cc2c[nH]c3ncc(-c4cccnc4)cc23)c1F [Compound P-0078, 2,4-difluoro-3-(5-pyridin-3-yl-1H-pyrrolo[2,3-b]pyridin-3-ylmethyl)-phenol]
not listed: Abl | Akt3
≤ 10 µM: all other assays above

Cc1c(NS(C)(=O)=O)cccc1C(=O)c1c[nH]c2ncc(-c3ccccc3)cc12 [Compound P-0082, N-[2-Methyl-3-(5-phenyl-1H-pyrrolo[2,3-b]pyridine-3-carbonyl)-phenyl]-methanesulfonamide]
≤ 10 µM: c-Raf-1 | Flt1 | Met

Cc1c(O)cccc1C(=O)c1c[nH]c2ncc(-c3cccs3)cc12 [Compound P-0114, (3-Hydroxy-2-methyl-phenyl)-(5-thiophen-2-yl-1H-pyrrolo[2,3b]pyridin-3-yl)-methanone]
not listed: Abl | Pyk2
≤ 10 µM: all other assays above

O=C(c1cccc(O)c1)c1c[nH]c2ncc(-c3cccs3)cc12 [Compound P-0196]
≤ 10 µM: Abl | Fak | Flt1 | Jnk3 | Akt3

O=C(Nc1ccc(Cc2c[nH]c3ncccc23)cc1)Nc1cccc(C(F)(F)F)c1 [Compound P-0262, 1-[4-(1H-Pyrrolo[2,3-b]pyridin-3-ylmethyl)-phenyl]-3-(3-trifluoromethyl-phenyl)-urea]
≤ 10 µM: c-Raf-1 | Met | Pyk2

CCCC(=O)Nc1ccc(F)c(Cc2c[nH]c3ncc(-c4cccnc4)cc23)c1F [Compound P-1280]
≤ 10 µM: Fak | Jnk3 | Met | Pyk2

OCCOc1ccc(F)c(Cc2c[nH]c3ncc(-c4cccnc4)cc23)c1F [Compound P-1394, 2-[2,4-Difluoro-3-(5-pyridin-3-yl-1H-pyrrolo[2,3-b]pyridin-3-ylmethyl)-phenoxy]-ethanol]
≤ 10 µM: Abl | Fak | Jnk3 | Met
